{"source": "patent US9364479B2", "about": "“Use of a receptor-type kinase modulator for treating polycystic kidney disease” (SYMPHONY EVOLUTION, INC., priority 2010, dated 2016)", "key": {"[1]": {"molecular_target": "T1, Potassium Channel, Ca2+ Act., VS (Homo sapiens, UniProt Q12791)", "T1 construct": "NovaScreen", "assay": "NovaScreen assay", "assay_type": "binding", "settings": "read-out: Inhibition, 10 μM XL-647"}, "Testosterone (cytosolic)": {"molecular_target": "T2, Testosterone (cytosolic) (Homo sapiens, UniProt P10275)", "T2 construct": "NovaScreen", "T2 sequence (P10275 whole entry)": "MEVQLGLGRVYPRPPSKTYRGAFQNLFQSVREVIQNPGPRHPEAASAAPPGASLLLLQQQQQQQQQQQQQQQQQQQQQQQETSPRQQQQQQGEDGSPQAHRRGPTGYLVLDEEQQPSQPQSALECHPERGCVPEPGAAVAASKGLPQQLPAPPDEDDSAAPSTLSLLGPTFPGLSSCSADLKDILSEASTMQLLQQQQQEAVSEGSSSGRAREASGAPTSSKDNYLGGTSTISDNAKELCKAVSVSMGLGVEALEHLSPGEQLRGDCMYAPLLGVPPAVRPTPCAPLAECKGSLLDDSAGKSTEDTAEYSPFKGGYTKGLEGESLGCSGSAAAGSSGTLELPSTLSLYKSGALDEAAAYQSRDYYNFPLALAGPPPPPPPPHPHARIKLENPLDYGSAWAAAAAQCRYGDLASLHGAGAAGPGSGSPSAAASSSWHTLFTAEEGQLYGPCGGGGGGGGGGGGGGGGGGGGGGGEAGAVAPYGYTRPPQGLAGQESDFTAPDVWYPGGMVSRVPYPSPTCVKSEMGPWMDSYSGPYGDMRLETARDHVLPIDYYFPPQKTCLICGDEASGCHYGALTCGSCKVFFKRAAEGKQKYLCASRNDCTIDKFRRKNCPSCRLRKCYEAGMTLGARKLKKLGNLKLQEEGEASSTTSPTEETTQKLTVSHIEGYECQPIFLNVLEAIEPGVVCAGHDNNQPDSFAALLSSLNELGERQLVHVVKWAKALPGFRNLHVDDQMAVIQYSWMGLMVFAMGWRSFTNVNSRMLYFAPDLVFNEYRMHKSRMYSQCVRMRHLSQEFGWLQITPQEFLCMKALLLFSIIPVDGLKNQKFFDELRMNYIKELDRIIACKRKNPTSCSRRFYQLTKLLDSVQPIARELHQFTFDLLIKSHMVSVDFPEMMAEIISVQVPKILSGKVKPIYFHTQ", "assay": "NovaScreen assay", "assay_type": "binding", "settings": "read-out: Inhibition, 10 μM XL-647"}, "GABA-B": {"molecular_target": "T3, GABA-B (Homo sapiens, UniProt Q9UBS5)", "T3 construct": "NovaScreen", "T3 sequence (Q9UBS5 15-961 limits assumed)": "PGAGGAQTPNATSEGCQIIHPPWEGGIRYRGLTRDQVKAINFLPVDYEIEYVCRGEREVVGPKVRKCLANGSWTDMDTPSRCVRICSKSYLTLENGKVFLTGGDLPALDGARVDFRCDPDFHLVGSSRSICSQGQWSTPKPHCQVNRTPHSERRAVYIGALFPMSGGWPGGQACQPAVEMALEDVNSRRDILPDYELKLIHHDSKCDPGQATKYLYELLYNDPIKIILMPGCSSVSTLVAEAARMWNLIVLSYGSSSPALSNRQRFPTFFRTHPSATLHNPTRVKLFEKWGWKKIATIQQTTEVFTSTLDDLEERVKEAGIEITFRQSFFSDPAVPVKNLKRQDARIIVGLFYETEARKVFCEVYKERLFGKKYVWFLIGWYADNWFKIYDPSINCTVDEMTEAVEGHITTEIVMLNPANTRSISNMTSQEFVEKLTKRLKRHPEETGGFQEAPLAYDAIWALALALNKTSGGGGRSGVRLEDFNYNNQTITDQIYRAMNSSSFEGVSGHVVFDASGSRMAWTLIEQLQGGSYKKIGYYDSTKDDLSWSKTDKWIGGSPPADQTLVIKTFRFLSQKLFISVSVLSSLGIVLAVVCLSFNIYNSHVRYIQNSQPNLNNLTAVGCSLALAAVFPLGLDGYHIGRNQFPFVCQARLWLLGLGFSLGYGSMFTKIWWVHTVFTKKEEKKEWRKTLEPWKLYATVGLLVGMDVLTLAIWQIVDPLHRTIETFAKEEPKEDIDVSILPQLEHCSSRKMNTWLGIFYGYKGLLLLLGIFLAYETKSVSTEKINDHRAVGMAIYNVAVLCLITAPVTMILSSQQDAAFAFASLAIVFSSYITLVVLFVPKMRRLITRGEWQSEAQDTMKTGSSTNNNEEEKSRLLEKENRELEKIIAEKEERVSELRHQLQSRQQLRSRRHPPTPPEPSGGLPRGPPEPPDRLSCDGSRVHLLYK", "T3 sequence (O75899 42-941 partner)": "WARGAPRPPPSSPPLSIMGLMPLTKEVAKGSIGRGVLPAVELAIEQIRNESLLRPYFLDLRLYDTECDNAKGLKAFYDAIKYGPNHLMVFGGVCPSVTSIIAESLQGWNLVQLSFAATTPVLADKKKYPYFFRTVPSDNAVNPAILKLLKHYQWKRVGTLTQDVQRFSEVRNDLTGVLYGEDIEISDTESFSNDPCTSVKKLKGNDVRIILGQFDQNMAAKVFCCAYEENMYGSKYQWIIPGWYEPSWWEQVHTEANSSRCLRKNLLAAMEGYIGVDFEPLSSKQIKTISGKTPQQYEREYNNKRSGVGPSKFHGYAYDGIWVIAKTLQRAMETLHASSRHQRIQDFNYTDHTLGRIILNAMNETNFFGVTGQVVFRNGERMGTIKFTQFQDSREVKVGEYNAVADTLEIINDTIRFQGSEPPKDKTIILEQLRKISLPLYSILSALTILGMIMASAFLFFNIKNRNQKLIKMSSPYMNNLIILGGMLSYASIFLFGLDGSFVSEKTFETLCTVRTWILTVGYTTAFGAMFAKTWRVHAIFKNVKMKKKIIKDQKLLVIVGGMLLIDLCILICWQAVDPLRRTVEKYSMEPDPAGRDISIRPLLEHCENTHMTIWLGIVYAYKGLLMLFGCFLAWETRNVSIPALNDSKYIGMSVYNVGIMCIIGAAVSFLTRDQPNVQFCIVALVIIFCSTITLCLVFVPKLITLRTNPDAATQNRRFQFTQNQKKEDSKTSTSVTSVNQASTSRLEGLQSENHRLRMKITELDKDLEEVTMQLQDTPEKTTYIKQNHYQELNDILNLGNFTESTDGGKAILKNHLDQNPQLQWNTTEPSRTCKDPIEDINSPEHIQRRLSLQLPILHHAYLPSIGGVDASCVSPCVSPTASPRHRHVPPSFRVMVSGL", "assay": "NovaScreen assay", "assay_type": "binding", "settings": "read-out: Inhibition, 10 μM XL-647"}, "Serotonin, Non-selective": {"test_system": "Serotonin, Non-selective", "assay": "NovaScreen assay", "assay_type": "binding"}, "ErbB2": {"molecular_target": "ErbB2 (Homo sapiens, UniProt P04626)", "sequence (P04626 23-1255)": "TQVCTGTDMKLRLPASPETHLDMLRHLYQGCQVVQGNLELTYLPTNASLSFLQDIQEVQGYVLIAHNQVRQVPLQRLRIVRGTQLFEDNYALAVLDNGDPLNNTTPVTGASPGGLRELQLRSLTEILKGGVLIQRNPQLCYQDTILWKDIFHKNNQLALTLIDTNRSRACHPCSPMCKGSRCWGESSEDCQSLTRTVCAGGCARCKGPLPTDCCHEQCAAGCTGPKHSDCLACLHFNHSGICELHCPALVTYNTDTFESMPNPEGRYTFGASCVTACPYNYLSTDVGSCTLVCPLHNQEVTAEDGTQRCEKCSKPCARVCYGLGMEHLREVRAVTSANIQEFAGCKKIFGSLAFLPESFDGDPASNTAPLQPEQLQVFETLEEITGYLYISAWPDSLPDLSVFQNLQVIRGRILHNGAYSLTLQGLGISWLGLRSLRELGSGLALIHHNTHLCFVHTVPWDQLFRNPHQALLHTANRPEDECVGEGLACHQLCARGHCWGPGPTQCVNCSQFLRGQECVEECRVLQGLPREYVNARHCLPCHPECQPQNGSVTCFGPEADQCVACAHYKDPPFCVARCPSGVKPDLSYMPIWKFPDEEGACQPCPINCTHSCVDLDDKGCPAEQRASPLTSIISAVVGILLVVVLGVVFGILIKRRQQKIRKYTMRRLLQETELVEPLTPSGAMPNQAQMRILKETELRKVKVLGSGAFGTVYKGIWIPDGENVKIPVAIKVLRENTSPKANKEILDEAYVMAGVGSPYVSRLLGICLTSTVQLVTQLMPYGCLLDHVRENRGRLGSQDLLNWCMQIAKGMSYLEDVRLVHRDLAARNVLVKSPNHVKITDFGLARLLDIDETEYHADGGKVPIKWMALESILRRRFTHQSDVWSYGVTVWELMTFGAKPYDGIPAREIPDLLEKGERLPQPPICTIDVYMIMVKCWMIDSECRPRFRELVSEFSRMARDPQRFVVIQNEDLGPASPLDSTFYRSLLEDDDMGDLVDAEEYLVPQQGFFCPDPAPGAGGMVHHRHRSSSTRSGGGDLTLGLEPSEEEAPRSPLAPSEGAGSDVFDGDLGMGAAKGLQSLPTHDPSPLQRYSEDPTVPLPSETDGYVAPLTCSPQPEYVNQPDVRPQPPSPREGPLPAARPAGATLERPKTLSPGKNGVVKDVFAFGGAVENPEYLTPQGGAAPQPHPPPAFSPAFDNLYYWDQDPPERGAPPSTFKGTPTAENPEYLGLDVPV", "assay": "ErbB2 autophosphorylation ELISA, BT474 cells", "assay_type": "cell-based", "settings": "read-out: Cellular IC50, autophosphorylation", "method": "The ErbB2 autophosphorylation ELISA utilized BT474 (ATCC) cells. Cells were seeded at 3×10^4 cells/well into 96-well microtiter plates (Costar 3904), in 1:1(DMEM:F12K) (Cellgro) containing 10% FBS (Heat-Inactivated, Hyclone), 1% penicillin-streptomycin (Cellgro), 1% NEAA solution (Cellgro), and 2% L-Glutamine (Cellgro). The cells were then incubated at 37° C., 5% CO2 for 40 hr. […] Following treatment, media was removed, the cell monolayer was washed with cold PBS and immediately lysed with cold lysis buffer. Lysates were centrifuged and transferred into blocked (1% BSA) 96-well high-binding plates (Costar 3925) coated with rabbit polyclonal anti-ErbB2 (1.3 μg/ml, Cell Signaling Technology). Plates were then incubated with HRP-conjugated, anti-phosphotyrosine cocktail (1:10,000, Zymed Laboratories, Inc), followed by the addition of a luminol-based substrate solution. Plates were read with a Victor spectrophotometer (Wallac). IC50 values were determined based on total ErbB2 tyrosine phosphorylation with compound treatment versus total ErbB2 tyrosine phosphorylation with no compound treatment."}, "[2]": {"molecular_target": "T4, Monoamine Oxidase B, Peripheral (Rattus norvegicus, UniProt P19643)", "T4 construct": "NovaScreen", "assay": "NovaScreen assay", "assay_type": "biochemical", "settings": "read-out: Inhibition, 10 μM XL-647"}, "Glutamate, AMPA Site": {"test_system": "Glutamate, AMPA Site", "assay": "NovaScreen assay", "assay_type": "binding"}, "Flt-4": {"molecular_target": "Flt-4 (Homo sapiens, UniProt P35916)", "assay": "Flt-4 autophosphorylation ELISA, transfected COS cells", "assay_type": "cell-based", "design": "expressed in transfected cells; host or cells: COS cells", "settings": "read-out: Cellular IC50, autophosphorylation", "description": "The Flt-4 autophosphorylation ELISA utilized COS cells. Cells were seeded at 200,000 cells per well in 6-well plates in DMEM with 10% FBS and grown at 5% CO2 and 37° C. After 24 h growth, cells were transfected with 1 μg/well Flt-4 cDNA, using 3 μl FuGENE-6 (Roche). […] The cell monolayer was washed twice with cold PBS and harvested by scraping into 150 μl ice-cold lysis buffer. Cell lysates were centrifuged at 13,000 g for 15 min, diluted 1:10 in ice-cold PBS, and transferred to clear Streptavidin plates (Pierce) coated with anti-human […] (Flt-4) biotinylated goat IgG (2 μg/well, R&D Biosciences). After washing, anti-Flag M2 mouse IgG-HRP (Sigma 1 to 10,000 dilution) or anti phospho-tyrosine rabbit IgG-HRP (Zymed, 61-5820, 1:10,000) was used to detect total Flt-4 and phosphorylated Flt-4."}, "[3]": {"molecular_target": "T5, Neurokinin, NK2 (NKA) (Human Recombinant) (Homo sapiens, UniProt P21452)", "T5 construct": "NovaScreen", "T5 sequence (P21452 whole entry)": "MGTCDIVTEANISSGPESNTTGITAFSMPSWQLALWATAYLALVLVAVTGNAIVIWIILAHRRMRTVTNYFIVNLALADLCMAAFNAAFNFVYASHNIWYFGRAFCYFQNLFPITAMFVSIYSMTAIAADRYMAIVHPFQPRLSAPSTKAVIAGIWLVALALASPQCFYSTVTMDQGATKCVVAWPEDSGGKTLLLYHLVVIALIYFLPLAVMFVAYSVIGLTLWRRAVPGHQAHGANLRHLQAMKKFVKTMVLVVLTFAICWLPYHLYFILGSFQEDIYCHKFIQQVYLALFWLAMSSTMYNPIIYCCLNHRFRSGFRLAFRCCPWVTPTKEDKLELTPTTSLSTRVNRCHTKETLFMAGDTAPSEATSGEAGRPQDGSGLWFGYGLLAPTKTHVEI", "assay": "NovaScreen assay", "assay_type": "binding", "settings": "read-out: Inhibition, 10 μM XL-647"}, "[4]": {"test_system": "subjects with advanced solid tumors", "assay": "Clinical Study XL-647-002 (Phase 1, daily dosing)"}, "[5]": {"test_system": "MDA-MB-231 xenograft tumors", "assay": "Immunohistochemistry of MDA-MB-231 xenograft tumors (Ki67, CD31)", "assay_type": "in vivo, mouse", "settings": "100 mg/kg, relative to vehicle", "description": "For immunohistochemical analysis of H1975, MDA-MB-231 and other xenografts, tumors were excised after euthanasia and fixed in zinc fixative (BD Biosciences) for 48 h before being processed into paraffin blocks. Serial sections at 5 μm were obtained from the area of largest possible surface for each tumor and stained using standard methods. The following antibodies were used: Ki67 (SP6; Labvision), CD31 (MECA.32; BD Biosciences), pERK^Thr202/Tyr204 (phospho-p44/42 mitogen-activated protein kinase; Cell Signaling Technology), pAKT^Ser473 (Cell Signaling Technology), and pEGFR^Tyr1068 (Cell Signaling Technology). For immunofluorescent staining, sections were then incubated with Alexa 594-conjugated goat anti-rabbit secondary antibody (Invitrogen) and mounted in Fluorescent Mounting Medium (DAKO) containing 4′,6-diamidino-2-phenylindole (Molecular Probes) as a nuclear counterstain. Fluorescent staining was visualized using a Zeiss Axiolmager and digitally captured using a Zeiss high-resolution camera coupled to AxioVision image analysis software. Two to three nonoverlapping representative fields were captured at ×200 or ×400 magnification depending on histologic readout and quantified using the integrated morphometric analysis functions in Metamorph software (Universal Imaging Corp.). Apoptotic cells were detected using terminal deoxynucleotidyl transferase-mediated dUTP nick end labeling in situ cell death detection kit according to the manufacturer's instructions (Roche Diagnostics GmbH).\nCD31-positive tumor vessels, Ki67-positive proliferating cells, and pERK staining in each tumor section were identified and quantified using the integrated morphometric analysis functions in the ACIS automatic cellular imaging system (Clarient, Inc.) and reviewed by a blinded observer. Number of CD31-positive vessels were identified across 5 to 10 randomly chosen fields of equal size at ×100 magnification in viable tumor tissue and calculated as number of vessels per square millimeter for each tumor, averaged for each treatment group, and compared with vehicle-treated controls. Percentage Ki67-positive cells were calculated as the ratio between Ki67-positive cells divided by the total number of cells identified across 5 to 10 randomly chosen fields of equal size in viable tumor tissue. The results for each tumor and treatment group were averaged and compared with vehicle-treated controls. The level of pERK staining was determined as described above and calculated as the ratio of antibody staining divided by the total number of cells identified, averaged for each treatment group, and compared with vehicle-treated controls.\nTumor proliferation was measured by staining for Ki67, which […]. The degree of tumor vascularization was measured by staining with the endothelial cell marker CD31 (Table 20)."}, "[6]": {"test_system": "Calcium Channel, Type L (Dihydropyridine Site)", "assay": "NovaScreen assay", "assay_type": "binding"}, "[7]": {"molecular_target": "T6, Angiotensin II, AT1 (Human) (Homo sapiens, UniProt P30556)", "T6 construct": "NovaScreen", "assay": "NovaScreen assay", "assay_type": "binding", "settings": "read-out: Inhibition, 10 μM XL-647"}, "[8]": {"test_system": "Glutamate, NMDA Agonist Site", "assay": "NovaScreen assay", "assay_type": "binding"}, "Endothelin, ET-A (Human)": {"molecular_target": "T7, Endothelin, ET-A (Human) (Homo sapiens, UniProt P25101)", "T7 construct": "NovaScreen", "T7 sequence (P25101 21-427)": "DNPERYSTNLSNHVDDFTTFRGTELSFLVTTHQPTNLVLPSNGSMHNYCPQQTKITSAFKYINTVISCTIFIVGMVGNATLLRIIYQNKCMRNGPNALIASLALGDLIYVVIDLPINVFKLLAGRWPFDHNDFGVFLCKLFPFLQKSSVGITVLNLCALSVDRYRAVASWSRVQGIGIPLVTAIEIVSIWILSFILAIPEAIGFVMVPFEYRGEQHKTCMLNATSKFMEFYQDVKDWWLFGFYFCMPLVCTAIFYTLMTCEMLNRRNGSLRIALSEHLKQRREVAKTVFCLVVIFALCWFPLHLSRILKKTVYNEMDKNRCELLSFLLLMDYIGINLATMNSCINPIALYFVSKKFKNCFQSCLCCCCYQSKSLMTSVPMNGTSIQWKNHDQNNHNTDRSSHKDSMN", "assay": "NovaScreen assay", "assay_type": "binding", "settings": "read-out: Inhibition, 10 μM XL-647"}, "[9]": {"test_system": "Muscarinic, Non-selective, Central", "assay": "NovaScreen assay", "assay_type": "binding"}, "[10]": {"test_system": "Adrenergic, Alpha 2, Non-selective", "assay": "NovaScreen assay", "assay_type": "binding"}, "Vasopressin 1": {"molecular_target": "T8, Vasopressin 1 (Homo sapiens, UniProt P37288)", "T8 construct": "NovaScreen", "assay": "NovaScreen assay", "assay_type": "binding", "settings": "read-out: Inhibition, 10 μM XL-647"}, "BALB/C mice": {"test_system": "BALB/C mice", "settings": "mouse, in vivo"}}, "note": "pIC50: −log10 of the molar value. Where “and” joins values, the source holds several entries; their conditions need not be identical. Equal values may be shown once. Read-outs that look alike come from different tables or passages of the source.", "data": [{"smiles": "COc1cc2c(Nc3ccc(Cl)c(Cl)c3F)ncnc2cc1OC[C@@H]1C[C@@H]2CN(C)C[C@@H]2C1", "note": "[XL-647, N-(3,4-dichloro-2-fluorophenyl)-7-({[(3aR,5r,6aS)-2-methyloctahydrocyclopenta[c]pyrrol-5-yl]methyl}oxy)-6-(methyloxy)quinazolin-4-amine]", "values": [{"measurement": "inhibition at 10 µM", "setting": "[1]", "result": 22.7, "unit": "%"}, {"measurement": "inhibition at 10 µM", "setting": "Testosterone (cytosolic)", "result": 18.1, "unit": "%"}, {"measurement": "inhibition at 10 µM", "setting": "GABA-B", "result": -1.19, "unit": "%"}, {"measurement": "Inhibition, 10 μM XL-647", "setting": "Serotonin, Non-selective", "result": 24.52, "unit": "%"}, {"measurement": "pIC50", "setting": "ErbB2", "result": 6.26}, {"measurement": "inhibition at 10 µM", "setting": "[2]", "result": 2.03, "unit": "%"}, {"measurement": "Inhibition, 10 μM XL-647", "setting": "Glutamate, AMPA Site", "result": 10.79, "unit": "%"}, {"measurement": "pIC50", "setting": "Flt-4", "result": 7.05}, {"measurement": "inhibition at 10 µM", "setting": "[3]", "result": 34.2, "unit": "%"}, {"measurement": "subjects with SD lasting greater than 3 months", "setting": "[4]; human, in vivo", "result": 16, "unit": "subjects"}, {"measurement": "MTD", "setting": "[4]; single oral dose daily", "result": 300, "unit": "mg"}, {"measurement": "CD31 (% Reduction)", "setting": "[5]; 3 days", "result": "76% and 76.5%"}, {"measurement": "Ki67 (% Reduction)", "setting": "[5]; 3 days", "result": 9.62, "unit": "%"}, {"measurement": "CD31 (% Reduction)", "setting": "[5]; 5 days", "result": 90.18, "unit": "%"}, {"measurement": "Ki67 (% Reduction)", "setting": "[5]; 5 days", "result": 33.8, "unit": "%"}, {"measurement": "CD31 (% Reduction)", "setting": "[5]; 7 days", "result": 95.7, "unit": "%"}, {"measurement": "Ki67 (% Reduction)", "setting": "[5]; 7 days", "result": "50% and 48.7%"}, {"measurement": "Inhibition, 10 μM XL-647", "setting": "[6]", "result": 46.77, "unit": "%"}, {"measurement": "inhibition at 10 µM", "setting": "[7]", "result": 6.85, "unit": "%"}, {"measurement": "Inhibition, 10 μM XL-647", "setting": "[8]", "result": "−1.66", "unit": "%"}, {"measurement": "inhibition at 10 µM", "setting": "Endothelin, ET-A (Human)", "result": -11.1, "unit": "%"}, {"measurement": "pIC50", "setting": "[9]", "result": 5.59}, {"measurement": "Inhibition, 10 μM XL-647", "setting": "[9]; 10 μM", "result": 97.91, "unit": "%"}, {"measurement": "pIC50", "setting": "[10]", "result": 5.74}, {"measurement": "Inhibition, 10 μM XL-647", "setting": "[10]; 10 μM", "result": 84.56, "unit": "%"}, {"measurement": "inhibition at 10 µM", "setting": "Vasopressin 1", "result": 32.8, "unit": "%"}, {"measurement": "BUN", "setting": "BALB/C mice; 7.5 mg/kg/day", "result": 19.00, "unit": "mg/dL"}, {"measurement": "CT-CI", "setting": "BALB/C mice; 7.5 mg/kg/day", "result": 0}, {"measurement": "Creatinine", "setting": "BALB/C mice; 7.5 mg/kg/day", "result": 0.24, "unit": "mg/dL"}, {"measurement": "MUCA", "setting": "BALB/C mice; 7.5 mg/kg/day", "result": 1029, "unit": "mOsmol"}, {"measurement": "BUN", "setting": "BALB/C mice; 15 mg/kg/day", "result": 19.29, "unit": "mg/dL"}, {"measurement": "CT-CI", "setting": "BALB/C mice; 15 mg/kg/day", "result": 0}, {"measurement": "Creatinine", "setting": "BALB/C mice; 15 mg/kg/day", "result": 0.29, "unit": "mg/dL"}, {"measurement": "MUCA", "setting": "BALB/C mice; 15 mg/kg/day", "result": 1029, "unit": "mOsmol"}]}]}
